From PubChem BioAssay AID624129 (Sanford-Burnham Center for Chemical Genomics, 2012)
Activity calls are given as the source filed them. The rule behind the calls is not given here.

Biological target: C-X-C chemokine receptor type 6 (Homo sapiens) (UniProt O00574)
Assay: potency against CXCR6 with APJ panel – cell-based, beta-arrestin, DiscoveRx, uHTS hits, dose response (AID 624129)
Conditions: CXCR6 beta-arrestin (DiscoveRx) antagonist cell assay; for outcome: CXCR6, dose range 1
[1] = CXCR6, dose range 1, mean IC50 across replicates
[2] = CXCR6, run 2, dose range 1, at 79 µM (top of the series)

Chain of C-X-C chemokine receptor type 6 (Homo sapiens) (O00574 whole entry, looked up): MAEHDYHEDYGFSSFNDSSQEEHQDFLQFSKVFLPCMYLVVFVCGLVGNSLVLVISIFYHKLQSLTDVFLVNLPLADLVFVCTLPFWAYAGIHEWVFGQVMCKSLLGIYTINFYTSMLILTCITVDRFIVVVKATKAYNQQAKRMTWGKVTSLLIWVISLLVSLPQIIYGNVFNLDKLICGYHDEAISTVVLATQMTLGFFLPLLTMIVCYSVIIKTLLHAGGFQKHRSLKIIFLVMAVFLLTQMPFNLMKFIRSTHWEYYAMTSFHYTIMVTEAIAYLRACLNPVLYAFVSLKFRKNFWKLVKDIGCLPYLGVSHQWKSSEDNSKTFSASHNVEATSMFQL

Row | Compound | outcome | IC50 [1] [µM] | IC50 (CXCR6, run 1, dose range 2) [µM] | inhibition [2] [%] | IC50 (CXCR6, run 2, dose range 2) [µM] | inhibition (CXCR6, run 2, dose range 1, at 39.5 µM (top of the series)) [%]
1 | CCCOc1ccc(CN(CCC#N)C(=S)NC(=O)c2ccccc2)cc1 | inactive | 20 | 10.4 | 68.9 | 29.6 | –
2 | Nc1nc(N)c2c(ccc3c2ccn3Cc2cccc([N+](=O)[O-])c2)n1 | inactive | 16.9 | 15.8 | 110 | 18 | –
3 | Cc1cccc(CS(=O)(=O)c2ncc(Cl)c(C(=O)NCc3ccc4c(c3)OCO4)n2)c1 | inactive | 16.9 | 15.7 | 109 | 18 | –
4 | O=C(COC(=O)C1CCN(S(=O)(=O)c2cccs2)CC1)c1cc2ccccc2o1 | inactive | 16.8 | 16.8 | 27.4 | > 79 | –
5 | Cc1ccc(S(=O)(=O)c2ccc([N+](=O)[O-])cn2)cc1 | inactive | 11.7 | 11.5 | 109 | 11.9 | –
6 | O=C(NCc1cccnc1)/C(=C\c1ccc(-c2cccc(Cl)c2)o1)S(=O)(=O)c1ccccc1 | inactive | 13.8 | 11.9 | 88.9 | 15.7 | –
7 | CC(=NO)C1CCC2C3CCC4=CC(=NO)CCC4(C)C3C(O)CC12C (stereo not given) | inactive | 28.9 | 12.5 | 75.2 | 45.4 | –
8 | O=C(Nc1ccccc1Oc1ccccc1)[C@@H]1O[C@H](CO)[C@H](O)[C@H](O)[C@H]1O | inactive | 14.2 | 12.4 | 99.6 | 15.9 | –
9 | CCCC/C=C1/CCC(CN(C)C)C1=O (stereo not given) | inactive | 22.6 | 22.3 | 110 | 22.8 | –
10 | Cc1ccc(NC(=O)C2=C(c3ccccc3)S(=O)(=O)CCS2(=O)=O)cc1 | inactive | 16.9 | 16.4 | 108 | 17.4 | –
11 | Cc1ccc(NCC(=O)c2ccc(C)cc2)cc1 | active | 5.44 | 5.44 | 58.5 | > 79 | –
12 | FC(F)(F)c1cnc(NNC(=S)Nc2ccccc2)c(Cl)c1 | inactive | 14.9 | 12 | 112 | 17.8 | –
13 | COc1cc(/C=C(\C#N)c2nc3ccccc3o2)ccc1O | inactive | 35.5 | 28.8 | 73.9 | 42.1 | –
14 | O=[N+]([O-])c1ccc(Sc2nc3ccccc3o2)c([N+](=O)[O-])c1 | inactive | 45.1 | 70.5 | 82.2 | 19.7 | –
15 | O=[N+]([O-])c1cc(-c2ncccn2)c([N+](=O)[O-])s1 | inactive | 24 | 23.8 | 111 | 24.3 | –
16 | Cn1cnc([N+](=O)[O-])c1S(=O)(=O)c1cccc(Cl)c1 | inactive | 12.1 | 12.4 | 112 | 11.9 | –
17 | C=CCn1c(=O)c2c(nc3n2CC(C)CN3c2cccc(OC)c2)n(C)c1=O (stereo not given) | inactive | 19.5 | 18.3 | 66.1 | 20.7 | –
18 | CCN(CC(=O)NC(C)(C)C)Cc1nc2c(Br)cc(Br)cc2c(=O)[nH]1 | inactive | 13.1 | 12.4 | – | 13.8 | 74.7
19 | COc1cc(/C=C(\C#N)c2nc(-c3cc4ccccc4oc3=O)cs2)ccc1O | inactive | 30.7 | 23.3 | 84.1 | 38.2 | –
20 | O=C(Nc1ccccc1)c1ccc(Nc2c([N+](=O)[O-])cc([N+](=O)[O-])c3ccccc23)cc1 | inactive | 44.4 | 65.1 | 98.6 | 23.6 | –
21 | CCOC(=O)c1cc([N+](=O)[O-])c([N+](=O)[O-])cc1NC(C)=O | inactive | 15.1 | 14.8 | 110 | 15.5 | –
22 | CCn1c(=O)cc(NC2=NCC(C)CN2c2cccc(Cl)c2)n(C)c1=O (stereo not given) | inactive | 19.1 | 19.3 | 79 | 19 | –
23 | CCOc1cc(/C=C2\N=C(SCC)SC2=O)cc([N+](=O)[O-])c1OC(C)=O | inactive | 39.3 | 23.8 | 95.5 | 54.8 | –
24 | CCc1nnc(NS(=O)(=O)c2ccc(Nc3ccc([N+](=O)[O-])c4nonc34)cc2)s1 | inactive | 34.1 | 29.8 | 92.2 | 38.4 | –

Row | Compound | outcome | IC50 [1] [µM] | IC50 (CXCR6, run 1, dose range 2) [µM] | inhibition [2] [%] | IC50 (CXCR6, run 2, dose range 2) [µM] | inhibition (CXCR6, run 2, dose range 1, at 39.5 µM (top of the series)) [%]
25 | O=C(C=Cc1ccccn1)c1ccccc1O | inactive | 22.4 | 13.8 | 108 | 31 | –
26 | O=C(COc1ccc(Br)cc1Cl)NC(=S)N1CCc2ccccc21 | inactive | 17.3 | 14.8 | 94.9 | 19.7 | –
27 | O=C1C=CC2C3C(=O)N(c4ccccc4)C(=O)C3C1N2Cc1ccccc1 (stereo not given) | inactive | 21.5 | 19.5 | 108 | 23.5 | –
28 | Cc1c(N=Nc2c(O)[nH]c(=S)[nH]c2=O)c(=O)n(-c2ccccc2)n1C | inactive | 22.5 | 16.4 | 107 | 28.6 | –
29 | COC(=O)c1ccc(CCc2cc(O)c(Br)cc2O)cc1 | inactive | 43.1 | 19.5 | 111 | 66.8 | –
30 | O=[N+]([O-])c1ccc(N/N=C/c2sc(N3CCOCC3)nc2-c2ccccc2)c(S(=O)(=O)Nc2ccccc2Cl)c1 | inactive | 27.6 | 27.6 | 95.7 | > 79 | –
31 | CCOC(=O)c1ccc(NC(=O)c2nc(S(=O)(=O)Cc3ccccc3)ncc2Cl)cc1 | inactive | 12.9 | 12.3 | 111 | 13.5 | –
32 | Cc1cc(C)nc(S/C=C/C(=O)c2ccccc2)n1 | inactive | 25.1 | 22.6 | 107 | 27.5 | –
33 | CC(=O)NS(=O)(=O)c1ccc(Nc2ccc([N+](=O)[O-])c3nonc23)cc1 | inactive | 46.6 | 35.6 | 85.9 | 57.6 | –
34 | C=C1CCN([C@@H](Cc2ccccc2)C(=O)NCCC(C)C)S(=O)(=O)c2ccccc21 | inactive | 15.2 | 17.1 | 69.3 | 13.3 | –
35 | CCOC(=O)C1=C(C)NC2=C(C(=O)CC(c3cccs3)C2)C1c1cccs1 (stereo not given) | inactive | 24 | 26.3 | 70.4 | 21.6 | –
36 | CC1(C)Cc2ccccc2C(NNC(=O)c2ccccn2)=N1 | inactive | 19.1 | 18 | 108 | 20.2 | –
37 | Cc1ccccc1CS(=O)(=O)c1nnc([C@H](Cc2ccccc2)NC(=O)OC(C)(C)C)o1 | inactive | 15.9 | 16 | 110 | 15.7 | –
38 | CC(=O)N1N=C(c2cccs2)CC1c1cccc([N+](=O)[O-])c1 (stereo not given) | inactive | 23.2 | 20.8 | 73.7 | 25.5 | –
39 | COc1cc(/C=C/[N+](=O)[O-])ccc1OC(=O)c1cc2ccccc2oc1=O | inactive | 11.6 | 12.1 | 112 | 11.2 | –
40 | CC1=CC(C)(C)N2C(=O)C(=Nc3ccc(O)cc3)c3cccc1c32 | inactive | 57.9 | 77.4 | 84 | 38.4 | –
41 | Cc1ccccc1CS(=O)(=O)c1ncc(Cl)c(C(=O)Nc2ccc(F)cc2)n1 | inactive | 17.1 | 15.4 | 109 | 18.9 | –
42 | COC(=O)c1ccccc1-c1c2ccc(=N)cc-2oc2cc(N)ccc12 | inactive | 17.8 | 17.1 | 88.3 | 18.6 | –
43 | O=C1c2cccc3c([N+](=O)[O-])ccc(c23)C(=O)N1Cc1cccnc1 | inactive | 27.8 | 25 | 110 | 30.5 | –
44 | CCCC(=O)OCCNc1cc(SCCC(=O)OC)c2nonc2c1[N+](=O)[O-] | inactive | 22 | 23.6 | 108 | 20.3 | –
45 | COc1cccc(-c2nnc(NC(=O)c3ccc(Cl)s3)o2)c1 | inactive | 14.3 | 12.5 | 67.6 | 16.1 | –
46 | CCC(C)c1ccc(O)c(NC(=S)NC(=O)c2cccs2)c1 (stereo not given) | inactive | 11.8 | 15.4 | 82.8 | 8.27 | –
47 | Cc1ccccc1NC(=S)NNc1ncc(C(F)(F)F)cc1Cl | inactive | 15 | 16.4 | 83.5 | 13.7 | –
48 | O=C(Nc1ccc(Oc2ccccc2)cc1)c1csc([C@@H]2O[C@H](CO)[C@H](O)[C@H](O)[C@H]2O)n1 | inactive | 40.1 | 40.1 | 57.4 | > 79 | –
